These results are taken from PubChem BioAssay (NCI).

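Five compound concentrations were applied to cells in 96-well plates for 48 hours; endpoints were derived by simple linear interpolation of the resulting dose-response curve. TGI: concentration producing complete growth inhibition.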 Where only a bound is given, the exact number is not on record here.

What all share (assay): growth of human tumour cells (NCI), 48 h
The subject of assay [1] is UO-31 renal.
In assay [2] the test system is HS 578T breast.
Assay [3] has as its system OVCAR-3 ovarian.
Assay [4] concerns SR leukemia.
The test system of assay [5] is IGROV1 ovarian.
Assay [6] has as its system T-47D breast.
The test system of assay [7] is NCI-H226 lung.
The subject of assay [8] is ACHN renal.
Assay [9] relates to SK-MEL-28 melanoma.
For assay [10], the system named is HCT-15 colon.

In the case of `Cn1ccnc1Sc1ccc(C=Nc2ccc3nc(SCC(=O)NC4CCCCC4)sc3c2)cc1[N+](=O)[O-]`, the TGI is > 100 µM in assay [1]; 96.3 µM in [2]; > 100 µM in assay [3]; > 100 µM in assay [4]; > 100 µM in assay [5]; > 100 µM in [6]. Moreover, the TGI in assay [7], in [8], in [9] and in assay [10] was > 100 µM throughout.

For `CC1=C[C@@H](C)C[C@]2(C)CC[C@H](O2)[C@]23CC[C@](C(=O)O)(C[C@H](O2)[C@@H]2O[C@@](C)(CC2=O)[C@@H](O)[C@H]2CC[C@@]4(CCC[C@@H](O4)[C@H](C)C(=O)O[C@H]4C[C@H]([C@]5(O)OCC[C@H](C)[C@@H]5O)O[C@H]4C=C1)O2)O3`, the TGI in [1] is > 10 µM; in assay [2], > 5.94 µM; in assay [3], > 10 µM; in assay [4] it was > 10 µM; in [5], > 10 µM; in [6], > 10 µM. Also, the TGI in [7], in assay [8], in assay [9] and in [10] was > 10 µM each time.
